Laboratory results reported in patent US8563559B2 (Rigel Pharmaceuticals, Inc., priority 2006, dated 2013).

Target: T1, Axl (Homo sapiens, UniProt P30530)
T1 construct: endogenous in cells; host or cells: HeLa
T1 sequence (P30530 26-894): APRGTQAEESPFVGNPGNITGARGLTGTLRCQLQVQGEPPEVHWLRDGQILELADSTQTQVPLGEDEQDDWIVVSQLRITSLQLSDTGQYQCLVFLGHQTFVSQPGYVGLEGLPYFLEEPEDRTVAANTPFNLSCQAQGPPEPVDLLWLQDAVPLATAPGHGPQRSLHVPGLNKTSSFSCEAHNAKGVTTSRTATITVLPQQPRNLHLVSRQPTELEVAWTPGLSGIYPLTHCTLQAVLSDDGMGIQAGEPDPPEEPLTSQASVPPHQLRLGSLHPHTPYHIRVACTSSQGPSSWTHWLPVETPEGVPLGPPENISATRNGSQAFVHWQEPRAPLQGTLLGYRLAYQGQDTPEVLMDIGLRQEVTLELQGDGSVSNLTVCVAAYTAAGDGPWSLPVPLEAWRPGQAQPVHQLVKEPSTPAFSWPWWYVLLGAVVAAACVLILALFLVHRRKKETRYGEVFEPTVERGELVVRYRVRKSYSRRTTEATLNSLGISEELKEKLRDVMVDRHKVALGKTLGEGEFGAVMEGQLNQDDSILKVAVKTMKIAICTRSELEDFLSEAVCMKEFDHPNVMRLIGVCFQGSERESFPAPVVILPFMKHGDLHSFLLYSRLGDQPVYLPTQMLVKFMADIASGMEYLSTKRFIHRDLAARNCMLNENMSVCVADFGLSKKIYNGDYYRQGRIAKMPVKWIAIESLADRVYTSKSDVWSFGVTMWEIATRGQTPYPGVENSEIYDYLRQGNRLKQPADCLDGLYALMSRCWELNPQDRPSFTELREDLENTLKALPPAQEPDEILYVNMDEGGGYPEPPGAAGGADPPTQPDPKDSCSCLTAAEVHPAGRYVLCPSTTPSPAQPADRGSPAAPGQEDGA
Assay: Phospho-AKT in-cell Western assay (inhibition of Axl activity)
Assay type: cell-based
Settings: Hela cells, Axl antibody cross-linking stimulation, phospho-Akt chemiluminescence normalized to relative cell number
Summary of the method: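 HeLa cells were starved 24 h in 0.5% FCS with Axl/Fc 500 ng/mL, pre-treated with compound for 1 h at 37 °C, then stimulated 5 min by anti-Axl antibody cross-linking. Fixed cells were probed for phospho-AKT with an HRP-linked in-cell Western and read by chemiluminescence.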

Row | IC50 (Table 1, formula (Ia)) | Compound | also measured
1 | 1 to 10 µM | CNC(=O)[C@H]1C[C@H]2C[C@H](C2(C)C)[C@@]1(C)Nc1nc(Nc2ccc(OCCN3CCCC3)cc2)ncc1F [Compound 40, (1R,2R,3S,5R)-2-(5-fluoro-2-(4-(2-(pyrrolidin-1-yl)ethoxy)phenylamino)pyrimidin-4-ylamino)-N,2,6,6-tetramethylbicyclo[3.1.1]heptane-3-carboxamide] | 
2 | < 1 µM | CNC(=O)[C@H]1C[C@H]2C[C@H](C2(C)C)[C@@]1(C)Nc1nc(Nc2ccc(C3CCN(C)CC3)cc2)ncc1Cl [Compound 12, (1R,2R,3S,5R)-2-(5-chloro-2-(4-(1-methylpiperidin-4-yl)phenylamino)pyrimidin-4-ylamino)-N,2,6,6-tetramethylbicyclo[3.1.1]heptane-3-carboxamide] | 
3 | < 1 µM | CNC(=O)[C@H]1C[C@H]2C[C@H](C2(C)C)[C@@]1(C)Nc1nc(Nc2ccc(OCCN(C)C3CCCC3)cc2)ncc1Cl [Compound 33, (1R,2R,3S,5R)-2-(5-chloro-2-(4-(2-((cyclopentyl)(methyl)amino)ethoxy)phenylamino)pyrimidin-4-ylamino)-N,2,6,6-tetramethylbicyclo[3.1.1]heptane-3-carboxamide] | 
4 | < 1 µM | CNC(=O)[C@H]1C[C@H]2C[C@H](C2(C)C)[C@@]1(C)Nc1nc(Nc2ccc(OCC(C)(C)N3CCCC3)cc2)ncc1Cl [Compound 8, (1R,2R,3S,5R)-2-(5-chloro-2-(4-(2-methyl-2-(pyrrolidin-1-yl)propoxy)phenylamino)pyrimidin-4-ylamino)-N,2,6,6-tetramethylbicyclo[3.1.1]heptane-3-carboxamide] | 
5 | < 1 µM | CNC(=O)[C@H]1C[C@H]2C[C@H](C2(C)C)[C@@]1(C)Nc1nc(Nc2ccc(OCCNC3CCCC3)cc2)ncc1Cl [Compound 9, (1R,2R,3S,5R)-2-(5-chloro-2-(4-(2-(cyclopentylamino)ethoxy)phenylamino)pyrimidin-4-ylamino)-N,2,6,6-tetramethylbicyclo[3.1.1]heptane-3-carboxamide] | 

The remaining lines, values behind:

Row | Compound | IC50 (Table 1, formula (Ia)) | also measured
6 | CNC(=O)[C@H]1C[C@H]2C[C@H](C2(C)C)[C@@]1(C)Nc1nc(Nc2ccc3c(c2)OCCN3CCN(C)C)ncc1C [Compound 49, (1R,2R,3S,5R)-2-(5-methyl-2-((3,4-dihydro-4-(2-(dimethylamino)ethyl)-2H-benzo[b][1,4]oxazin-7-yl)amino)pyrimidin-4-ylamino)-N,2,6,6-tetramethylbicyclo[3.1.1]heptane-3-carboxamide] |  | IC50 (Table 3, formula (Ic)): 1 to 10 µM
7 | CNC(=O)[C@H]1C[C@H]2C[C@H](C2(C)C)[C@@]1(C)Nc1nc(Nc2ccc(C(=O)N3CCN(C4CCCCC4)CC3)cc2)ncc1Cl [Compound 10, (1R,2R,3S,5R)-2-(5-chloro-2-(4-(4-cyclohexylpiperazine-1-carbonyl)phenylamino)pyrimidin-4-ylamino)-N,2,6,6-tetramethylbicyclo[3.1.1]heptane-3-carboxamide] | < 1 µM | 
8 | CNC(=O)[C@H]1C[C@H]2C[C@H](C2(C)C)[C@@]1(C)Nc1nc(Nc2ccc(N3CCN(c4ccc(F)cc4)CC3)cc2)ncc1Cl [Compound 11, (1R,2R,3S,5R)-2-(5-chloro-2-(4-(4-(4-fluorophenyl)piperazin-1-yl)phenylamino)pyrimidin-4-ylamino)-N,2,6,6-tetramethylbicyclo[3.1.1]heptane-3-carboxamide] | > 20 µM | 
9 | CCN(CC)CCN1CCOc2cc(Nc3ncc(Cl)c(N[C@@]4(C)[C@@H](C(=O)NC)C[C@H]5C[C@@H]4C5(C)C)n3)ccc21 [Compound 45, (1R,2R,3S,5R)-2-(5-chloro-2-((3,4-dihydro-4-(2-(diethylamino)ethyl)-2H-benzo[b][1,4]oxazin-7-yl)amino)pyrimidin-4-ylamino)-N,2,6,6-tetramethylbicyclo[3.1.1]heptane-3-carboxamide] |  | IC50 (Table 3, formula (Ic)): < 1 µM
10 | CCN1CCN(c2cc(Nc3ncc(Cl)c(N[C@@]4(C)[C@@H](C(=O)NC)C[C@H]5C[C@@H]4C5(C)C)n3)ccc2Cl)CC1 [Compound 15, (1R,2R,3S,5R)-2-(5-chloro-2-(4-chloro-3-(4-ethylpiperazin-1-yl)phenylamino)pyrimidin-4-ylamino)-N,2,6,6-tetramethylbicyclo[3.1.1]heptane-3-carboxamide] | 1 to 10 µM | 
11 | CCN(CC)C1CCN(c2ccc(Nc3ncc(C(F)(F)F)c(N[C@@]4(C)[C@@H](C(=O)NC)C[C@H]5C[C@@H]4C5(C)C)n3)cc2F)CC1 [Compound 52, (1R,2R,3S,5R)-2-(5-trifluoromethyl-2-(3-fluoro-4-(4-(diethylamino)piperidin-1-yl)phenylamino)pyrimidin-4-ylamino)-N,2,6,6-tetramethylbicyclo[3.1.1]heptane-3-carboxamide] | < 1 µM | 
12 | CNC(=O)[C@H]1C[C@H]2C[C@H](C2(C)C)[C@@]1(C)Nc1nc(Nc2ccc(C(=O)N3CCN(C)CC3)c(Cl)c2)ncc1Cl [Compound 14] | < 1 µM | 
13 | CNC(=O)[C@H]1C[C@H]2C[C@H](C2(C)C)[C@@]1(C)Nc1nc(Nc2ccc(Cl)c(N3CCN(C(=O)OC)CC3)c2)ncc1Cl [Compound 18, (1R,2R,3S,5R)-2-(2-(3-(4-(methoxycarbonyl)piperazin-1-yl)-4-chlorophenylamino)-5-chloropyrimidin-4-ylamino)-N,2,6,6-tetramethylbicyclo[3.1.1]heptane-3-carboxamide] | > 20 µM | 
14 | CNC(=O)[C@H]1C[C@H]2C[C@H](C2(C)C)[C@@]1(C)Nc1nc(Nc2ccc3c(c2)OCCN3CCN2CCCCC2)ncc1Cl [Compound 56, (1R,2R,3S,5R)-2-(5-chloro-2-((3,4-dihydro-4-(2-(piperidin-1-yl)ethyl)-2H-benzo[b][1,4]oxazin-7-yl)amino)pyrimidin-4-ylamino)-N,2,6,6-tetramethylbicyclo[3.1.1]heptane-3-carboxamide] |  | IC50 (Table 3, formula (Ic)): < 1 µM
15 | CNC(=O)[C@H]1C[C@H]2C[C@H](C2(C)C)[C@@]1(C)Nc1nc(Nc2ccc(N3CCN(S(C)(=O)=O)CC3)c(C(F)(F)F)c2)ncc1F [Compound 37, (1R,2R,3S,5R)-2-(5-fluoro-2-(3-trifluoromethyl-4-(4-methylsulfonylpiperazin-1-yl)phenylamino)pyrimidin-4-ylamino)-N,2,6,6-tetramethylbicyclo[3.1.1]heptane-3-carboxamide] | > 20 µM | 
16 | CNC(=O)[C@@H]1C[C@@H]2C[C@@H](C2(C)C)[C@]1(C)Nc1nc(Nc2ccc(OCCN3CCCC3)c(F)c2)ncc1Cl [Compound 23, (1S,2S,3R,5S)-2-(5-chloro-2-(3-fluoro-4-(2-(pyrrolidin-1-yl)ethoxy)phenylamino)pyrimidin-4-ylamino)-N,2,6,6-tetramethylbicyclo[3.1.1]heptane-3-carboxamide] |  | IC50 (Table 2, formula (Ib)): 1 to 10 µM
17 | CN(C)CCN1CCOc2cc(Nc3ncc(Cl)c(N[C@@]4(C)[C@@H](C(=O)NCCO)C[C@H]5C[C@@H]4C5(C)C)n3)ccc21 [Compound 60, (1R,2R,3S,5R)-2-(5-chloro-2-((3,4-dihydro-4-(2-(dimethylamino)ethyl)-2H-benzo[b][1,4]oxazin-7-yl)amino)pyrimidin-4-ylamino)-N-(2-hydroxyethyl)-2,6,6-trimethylbicyclo[3.1.1]heptane-3-carboxamide] |  | IC50 (Table 3, formula (Ic)): < 1 µM
18 | CC(C)NC(=O)[C@H]1C[C@H]2C[C@H](C2(C)C)[C@@]1(C)Nc1nc(Nc2ccc3c(c2)OCCN3CCN(C)C)ncc1Cl [Compound 64, (1R,2R,3S,5R)-2-(5-chloro-2-((3,4-dihydro-4-(2-(dimethylamino)ethyl)-2H-benzo[b][1,4]oxazin-7-yl)amino)pyrimidin-4-ylamino)-N-(1-methylethyl)-2,6,6-trimethylbicyclo[3.1.1]heptane-3-carboxamide] |  | IC50 (Table 3, formula (Ic)): < 1 µM
19 | CN1CCN(c2ccc(Nc3nccc(N[C@@]4(CCO)[C@@H](C(N)=O)C[C@H]5C[C@@H]4C5(C)C)n3)cc2F)CC1 [Compound 19, (1R,2R,3S,5R)-2-(2-(3-fluoro-4-(4-methylpiperazin-1-yl)phenylamino)pyrimidin-4-ylamino)-2-(2-hydroxyethyl)-6,6-dimethylbicyclo[3.1.1]heptane-3-carboxamide] | > 20 µM | 
20 | CNC(=O)[C@H]1C[C@H]2C[C@H](C2(C)C)[C@@]1(C)Nc1nc(Nc2ccc3c(c2)OCC(=O)N3)ncc1Cl [Compound 28, (1R,2R,3S,5R)-2-(5-chloro-2-(3-oxo-3,4-dihydro-2H-benzo[b][1,4]oxazin-7-ylamino)pyrimidin-4-ylamino)-N,2,6,6-tetramethylbicyclo[3.1.1]heptane-3-carboxamide] |  | IC50 (Table 3, formula (Ic)): > 20 µM
21 | CNC(=O)[C@H]1C[C@H]2C[C@H](C2(C)C)[C@@]1(C)Nc1nc(Nc2ccc(N3CCC(F)(F)CC3)c(F)c2)ncc1F [Compound 35, (1R,2R,3S,5R)-2-(5-fluoro-2-(3-fluoro-4-(4,4-difluoropiperidin-1-yl)phenylamino)pyrimidin-4-ylamino)-N,2,6,6-tetramethylbicyclo[3.1.1]heptane-3-carboxamide] | > 20 µM | 
